Assay results taken from US10285966B2, “10-hydroxy-cis-12-octadecenoic acid alkyl ester and use thereof” (NITTO PHARMACEUTICAL INDUSTRIES, LTD., priority 2015, dated 2019).

Assay: State (liquid or solid) at ambient temperature by visual observation
Format: physicochemical
Details: for State at standard temperature: Table 1; for liquid or solid at ambient temperature: ambient temperature (about 15-25° C.), visual observation
Description: The compounds (1)-(3) of the present invention are desirably liquid at ambient temperature. In the present specification, the ambient temperature refers to the ambient temperature (15° C.-25° C.) defined in the Japanese Pharmacopoeia, 16th edition, General Rules, the Japanese Pharmacopoeia, 17th edition, General Rules. In addition, “about” here means ±1° C.
Whether the compounds of Examples 1 and 2 and HYA of Comparative Example are liquid or solid at ambient temperature (about 15-25° C.) was confirmed by visual observation.

State at standard temperature | liquid or solid at ambient temperature | SMILES
liquid | liquid | CCCCC/C=C\CC(O)CCCCCCCCC(=O)OCC (stereo not drawn) [Example 1, ethyl 10-hydroxy-cis-12-octadecenoate]
solid | solid | CCCCC/C=C\CC(O)CCCCCCCCC(=O)O (stereo not drawn) [HYA, 10-hydroxy-cis-12-octadecenoic acid]
 | liquid | CCCCC/C=C\CC(O)CCCCCCCCC(=O)OCCC (stereo not drawn) [Example 2, propyl 10-hydroxy-cis-12-octadecenoate]
